The record followed here is the METLIN SMRT retention time set (Domingo-Almenara et al. 2019).

Molecules are shown by their SMILES.

The data set is described as follows: gradient 5% acetonitrile 3 min, to 50% in 2 min, to 85% in 15 min, held 3 min, 100 µL/min. The note with it: column: Zorbax Extend-C18 2.1 x 50 mm; eluents: water / acetonitrile, 0.1% formic acid. A digest of the protocol: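 Each retention time is based on an adduct peak selected computationally and verified by manual inspection. Measurements used HPLC–quadrupole time-of-flight mass spectrometry in positive and negative ionization mode on mixtures of ~100 pure standards. Chromatography ran on a Zorbax Extend-C18 column (2.1 × 50 mm, 1.8 μm) at 100 μL/min with water and acetonitrile, each containing 0.1% formic acid, and dead and dwell volumes of 40 μL and 900 μL.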
For `COc1ccc(CCNC(=O)C2CCc3nc(N4CCCCC4)ncc3C2)cc1OC` (stereo not given), the RP-LC retention time is 702 s.

In the case of `Cc1ccc(CNC(=O)N2CC=C(c3cn(C(C)C)c4ncccc34)CC2)cc1`, the RP-LC retention time worked out at 958 s.

In the case of `Cc1cc(OCC(O)CN2CCN(C)CC2)ccc1Cl` (stereo not given), the RP-LC retention time amounted to 558 s.

For the compound `Cc1[nH]c2ccccc2c1C(=O)C(=O)N(C)c1ccccc1`, the RP-LC retention time came out at 767 s.

For the compound `COc1ccc(N2CCN(C(=O)C3CCN(c4cncnc4N(C)C)CC3)CC2)cc1`, the RP-LC retention time stood at 602 s.

For `O=C(Cc1ccc(Cl)cc1)Nc1nnc(SCc2nnc(-c3ccccc3)o2)s1`, the RP-LC retention time stood at 955 s.

Compound `O=C(CSc1nnc2c3cc(-c4ccc(F)cc4)nn3ccn12)Nc1ccccc1Br` registered an RP-LC retention time of 935 s.

In the case of `CCSc1nnc(NC(=O)C2CCCN(c3ccc(-c4ccco4)nn3)C2)s1` (stereo not given), the RP-LC retention time came out at 672 s.

Take `OCC1CN(c2ncccn2)CC12CCN(Cc1cc(Cl)ccc1F)CC2` (stereo not given): the RP-LC retention time was 577 s.

For the compound `CCN(CC)CCNC(=O)c1nnc(-c2oc3c(C)cccc3c2C)o1`, the RP-LC retention time was 683 s.

As for `Cc1ccc2c(c1)cc(S(=O)(=O)c1ccccc1)c(=O)n2CC(=O)NCc1ccccc1Cl`, the RP-LC retention time is 948 s.

Consider `Cc1nccn1CC(=O)N1CCCn2cc(-c3cccc(C#N)c3)nc21`, for which the RP-LC retention time was found to be 626 s.

For the compound `Cc1ccc2cc(CCC(=O)NCCc3cccnc3)c(=O)[nH]c2c1`, the RP-LC retention time was found to be 586 s.

`O=C(Cn1nc2n(c1=O)CCCC2)Nc1ccc(F)c(Cl)c1` gave an RP-LC retention time of 670 s.

Take `CNc1nc(Nc2ccccc2C)nc2ccccc12`: the RP-LC retention time worked out at 664 s.

In the case of `CCOc1ccc(-c2noc(CN3C(=O)COc4ccc(Cl)cc43)n2)cc1OC`, the RP-LC retention time turned out to be 1050 s.

On to `COc1ccc(-c2csc(Nc3ccc(Br)cn3)n2)cc1OC`, for which the RP-LC retention time turned out to be 1100 s.

The compound `Cc1cccc(-c2nnc(-c3cccc(S(=O)(=O)N4CCCCCC4)c3)o2)c1` yielded an RP-LC retention time of 1190 s.

For the compound `CCC(C)NC(=O)c1cn(C)nc1S(=O)(=O)N1CCN(c2cc(Cl)ccc2C)CC1` (stereo not given), the RP-LC retention time was found to be 1150 s.

`CC(C)OC(=O)Cn1nc(-c2nc(-c3ccc(Cl)cc3)no2)ccc1=O` displayed an RP-LC retention time of 1080 s.

As to `CN(C)CCNC(=O)C1CCCN(c2ccc(Sc3ccc(Br)cc3)nn2)C1` (stereo not given), the RP-LC retention time is 648 s.

Consider `COc1ccccc1CC(=O)NC1CCN(Cc2c(C)noc2C)C1` (stereo not given), for which the RP-LC retention time stood at 584 s.

Take `Cc1ccc(-c2nnc(SCC(=O)N3CCC(C)CC3)o2)cc1`: the RP-LC retention time was 986 s.

Regarding `NC(=O)C1CCN(C(=O)c2ccc3c(c2)CCCN3S(=O)(=O)c2ccc(Cl)cc2)CC1`, the RP-LC retention time was 741 s.

As for `Cn1c(N2CCCC(C(=O)NCc3ccccc3)C2)cc(=O)n(C)c1=O` (stereo not given), the RP-LC retention time worked out at 662 s.

Take `CC(C)c1cc(C(=O)NC2CC2)nc2cc(-c3ccccn3)nn12`: the RP-LC retention time is 819 s.

In turn, `CCS(=O)(=O)N1CCC[C@H](n2c(=O)n(C)c3cccnc32)C1` yielded an RP-LC retention time of 698 s.

For `COc1ccc(OC)c(CNC(=O)COc2nc(C)nc3oc(C)c(C)c23)c1`, the RP-LC retention time came to 866 s.

Take `O=C(NCc1noc(C2CCCCC2)n1)c1coc(C2CC2)n1`: the RP-LC retention time was 889 s.

As to `COc1ccc(C2C(C(=O)N3CCOCC3)c3cc(OC)c(OC)cc3C(=O)N2C)cc1OC` (stereo not given), the RP-LC retention time was found to be 637 s.

With `CCCn1ncc(N2CCC(C(=O)NCCc3cccs3)CC2)cc1=O`, the RP-LC retention time came out at 714 s.

`Cc1cc(N2CCN(S(=O)(=O)c3ccccc3F)CC2)nc(NC2CCCCC2)n1` came in with an RP-LC retention time of 796 s.

`Cc1cc(S(=O)(=O)N2CCc3nc(-c4ccc(F)cc4)ncc3C2)ccc1F` registered an RP-LC retention time of 1130 s.

As to `Cc1c(Cl)cccc1Nc1c(-c2ccc(N3CCOCC3)cc2)nc2cnccn12`, the RP-LC retention time worked out at 916 s.

In the case of `C=CCNc1ncnc2sc(SC)nc12`, the RP-LC retention time was 855 s.

On to `O=C(CN1C(=O)CSc2cccn2-c2ccccc21)N1CCN(c2ccccn2)CC1`, for which the RP-LC retention time worked out at 607 s.

For `CSc1ccc(CNC(=O)c2c(C)oc3ccn(Cc4cccc(F)c4)c(=O)c23)cc1`, the RP-LC retention time turned out to be 1110 s.

Compound `CS(=O)(=O)N1CCN(CCNC(=O)NC(c2ccccc2)c2ccccc2)CC1` had an RP-LC retention time of 580 s.

As for `CC(C)NC(=O)c1ccccc1OCC1CCCN(C2CCC2)C1` (stereo not given), the RP-LC retention time is 606 s.

`O=C(c1cc(=O)n2c(nc3ccccc32)s1)N1CCN(c2ccccn2)CC1` gave an RP-LC retention time of 634 s.

Regarding `CN(CC1CCOCC1)C(=O)c1cccs1`, the RP-LC retention time was 664 s.

As to `O=C(Nc1cnc(N2CCCCC2)nc1)c1ccc(Br)o1`, the RP-LC retention time turned out to be 927 s.

For the compound `CCN1c2ccc(F)cc2C(=O)NC12CCN(C(=O)c1cccc(F)c1)CC2`, the RP-LC retention time turned out to be 791 s.

Take `O=C(Cc1cccs1)N1CCCN(c2cc(-c3ccc4c(c3)OCO4)[nH]n2)CC1`: the RP-LC retention time is 671 s.

With `O=S(=O)(c1c[nH]c2ncccc12)N1CCN(c2ccccc2)CC1`, the RP-LC retention time was 805 s.

The compound `CCN1C(=O)c2cccnc2Sc2cc(CNC(=O)Cc3cccc(F)c3)ccc21` returned an RP-LC retention time of 761 s.

Compound `Cc1ccc(-c2coc(-c3ccc(NC(=O)c4cccs4)cc3)n2)cc1` yielded an RP-LC retention time of 1170 s.

Regarding `COC(=O)c1ccccc1NC(=O)CSc1cc(-n2nc(C)cc2C)ncn1`, the RP-LC retention time turned out to be 1130 s.

For the compound `CCN(CC)C(=O)c1c(C)sc2ccn(CC)c(=O)c12`, the RP-LC retention time was determined as 720 s.

For `Cn1nc(C(=O)OCc2cc(-c3ccc(Cl)cc3)on2)ccc1=O`, the RP-LC retention time worked out at 812 s.

The compound `Cc1ccc(S(=O)(=O)c2cnc(N3CCC4(CC3)OCCO4)nc2N)cc1` registered an RP-LC retention time of 858 s.

`CCCCOc1ccc(C(=O)NC2(c3nc(-c4cccnc4)no3)CCCCC2)cc1` had an RP-LC retention time of 1170 s.

For the compound `O=C(c1ccnnc1)N1CC(F)(F)C[C@H]1c1nnc(-c2ccccc2)o1`, the RP-LC retention time stood at 696 s.

`CCOc1ccc(NC(=O)NCCc2nc3cccnc3n2C2CCCC2)cc1` returned an RP-LC retention time of 721 s.

With `Cc1cc(=O)n(CC(=O)Nc2ccccc2C)c(N2CCCC2)n1`, the RP-LC retention time amounted to 620 s.

`Cc1scc2nc(C(=O)N3CCN(C4CCCC4)CC3)nc(N3CCCC3)c12` came in with an RP-LC retention time of 550 s.

In the case of `CCCCN(C)S(=O)(=O)c1cc(-c2nc(C)cs2)n(CC(=O)N2CCCCC2)c1`, the RP-LC retention time was 1080 s.

`CN1C(=O)c2cc(C(=O)NC3CCCCC3)nn2CC1(C)C(=O)NCc1ccccc1` (stereo not given) returned an RP-LC retention time of 758 s.

In turn, `Cc1ccc(CSc2nccc3c2ccn3CC(=O)NCc2ccco2)cc1` registered an RP-LC retention time of 729 s.

`Cn1nccc1C(=O)Nc1ccsc1-c1nc(-c2ccccc2)no1` yielded an RP-LC retention time of 1280 s.

`COc1cc(NC(=O)COc2cc(C)nc(N3CCN(c4ccccc4)CC3)n2)cc(OC)c1` came in with an RP-LC retention time of 821 s.

For `CCn1c(CCNC(=O)c2ccc3c(c2)OCO3)nc2cccnc21`, the RP-LC retention time came out at 599 s.

`O=C(O)C1CCc2sc(C(=O)N3CCCCCC3)cc2C1` (stereo not given) gave an RP-LC retention time of 746 s.

As for `CCCn1cc(CCNC(=O)c2cc(C)ccc2C)c2cccnc21`, the RP-LC retention time was 827 s.

Take `Cc1cc(C(=O)NCCN2CCN(C(=O)c3cccs3)CC2)c(C)o1`: the RP-LC retention time was found to be 563 s.

In turn, `O=C(NCc1ccc(F)cc1)C1CCCN(c2nc3ccsc3c(=O)n2Cc2ccc(F)cc2)C1` (stereo not given) gave an RP-LC retention time of 963 s.

As to `Cc1nn(C)c(C)c1CNC(=O)c1ccc2nc(Cc3ccccc3)oc2c1`, the RP-LC retention time amounted to 714 s.

For `Cc1noc(C)c1S(=O)(=O)N1C[C@@H](F)C[C@H]1C(=O)N1CCCCC1`, the RP-LC retention time turned out to be 765 s.

Compound `CCNc1cc(N2CCCC(CCC(=O)N3CCOCC3)C2)ncn1` (stereo not given) had an RP-LC retention time of 586 s.

For the compound `CCCN1CCN(c2cc(C(=O)O)c3cc(NS(=O)(=O)c4ccc(C)cc4)ccc3n2)CC1`, the RP-LC retention time was 638 s.

Compound `CC(=O)N1CCc2cc(N3CC(C(=O)Nc4cccc(F)c4)CC3=O)ccc21` (stereo not given) returned an RP-LC retention time of 710 s.

`O=C([C@@H]1C[C@H](F)CN1S(=O)(=O)c1ccc(Cl)cc1)N1CCCCC1`: the RP-LC retention time was 852 s.

In turn, `O=C(NC1CC1)C1CCc2sc(C(=O)N3CCCCC3)cc2C1` (stereo not given) gave an RP-LC retention time of 711 s.

The compound `O=C(CN1C(=O)COc2ccc(C(=O)N3CCCC3)cc21)N1CCN(c2ccccn2)CC1` registered an RP-LC retention time of 583 s.

For the compound `Cc1nc(C)c(C(=O)Nc2nc(-c3ccc(Cl)cc3)cs2)s1`, the RP-LC retention time came to 992 s.

Compound `C=CC(=O)Nc1cccc(Oc2nc(Nc3ccc(N4CCN(C)CC4)cc3OC)ncc2Cl)c1` displayed an RP-LC retention time of 718 s.

As to `COc1cc(OC)c(NC(=O)N(C)Cc2nc3cc(C(=O)N4CCCC4)ccc3n2C)cc1Cl`, the RP-LC retention time was 640 s.

`Cc1ccc(C(=O)N2CCC[C@H]2c2nc(-c3ccccc3)n[nH]2)s1`: the RP-LC retention time is 740 s.

In turn, `CCCCc1ccc(NC(=O)Cn2cccc2-c2nc(-c3ccc4c(c3)OCO4)no2)cc1` returned an RP-LC retention time of 1260 s.

`COC(=O)c1cccc(NC(=O)Nc2ccc3c(c2)N(C(=O)c2ccccc2)CC3)c1`: the RP-LC retention time came to 921 s.
